The target in assay [1] is GST-hRIPK1 (8-327) (Homo sapiens (Human), UniProt Q13546). The experiment in a line: Fluorescent Polarization Binding (FP Binding) assay.
Assay [2] concerns FADD-deficient Jurkat cells. Nature of the assay: Cellular necroptosis assay (human TNFα-induced necrosis, CellTiter-Glo). The class given is cell-based. The following applies: 48 h, read-out: Cell IC50. (In general: Cellular ATP, detected with luciferase, serves as a proxy for viable cell number.)
[3] abbreviates: Homo sapiens, Jurkat, TNFα 10 ng/mL.

Where two headings read alike, the source gives them in different places.

This passage reports IC50 results from patent US10604535B2, “Compounds, compositions and methods” (Denali Therapeutics Inc., priority 2016, dated 2020).

By IC50 is commonly meant the point on the concentration scale where inhibition reaches its midpoint.

Chain of GST-hRIPK1 (8-327) (Q13546 8-327): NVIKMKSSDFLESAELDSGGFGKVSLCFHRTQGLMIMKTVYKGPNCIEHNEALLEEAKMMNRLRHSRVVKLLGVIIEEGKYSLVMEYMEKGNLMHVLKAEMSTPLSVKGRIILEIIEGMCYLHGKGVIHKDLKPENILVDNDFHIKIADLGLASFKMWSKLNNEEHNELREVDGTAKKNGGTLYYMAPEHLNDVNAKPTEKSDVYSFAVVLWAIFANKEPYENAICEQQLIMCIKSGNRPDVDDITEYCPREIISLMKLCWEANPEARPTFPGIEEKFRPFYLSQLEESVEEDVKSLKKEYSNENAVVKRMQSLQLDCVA

On to `C[C@H]1Oc2cccnc2N(C)C(=O)[C@H]1NC(=O)c1nn(Cc2cccc(C#N)c2)cc1F` [Example 128, 1-(3-Cyanobenzyl)-N-((2R,3S)-2,5-dimethyl-4-oxo-2,3,4,5-tetrahydropyrido[3,2-b][1,4]oxazepin-3-yl)-4-fluoro-1H-pyrazole-3-carboxamide], for which the IC50 in assay [1] and in assay [2] (setting [3]) was 0.1 to 1000 nM throughout.
Take `CN1C(=O)[C@@H](NC(=O)c2nnc(Cc3ccccc3)[nH]2)COc2cnccc21` [Example 41, (S)-5-benzyl-N-(1-methyl-2-oxo-1,2,3,4-tetrahydropyrido[3,4-b][1,4]oxazepin-3-yl)-4H-1,2,4-triazole-3-carboxamide]: the IC50 in assay [1] and in assay [2] (setting [3]) was 0.1 to 1000 nM throughout.
For the molecule `CN1C(=O)[C@@H](NC(=O)c2nnc(C3(c4ccccc4)CC3)o2)CCc2nccnc21` [Example 180A, (S)—N-(5-methyl-6-oxo-6,7,8,9-tetrahydro-5H-pyrazino[2,3-b]azepin-7-yl)-5-(1-phenylcyclopropyl)-1,3,4-oxadiazole-2-carboxamide], the IC50 in assay [1] and in assay [2] (setting [3]) was 0.1 to 1000 nM each time.
Turning to `CN1C(=O)[C@@H](NC(=O)c2nnc(Cc3cc(F)cc(C#N)c3)[nH]2)COc2cccnc21` [Example 162, (S)-5-(3-cyano-5-fluorobenzyl)-N-(5-methyl-4-oxo-2,3,4,5-tetrahydropyrido[3,2-b][1,4]oxazepin-3-yl)-4H-1,2,4-triazole-3-carboxamide], the IC50 in assay [1] and in assay [2] (setting [3]) was 0.1 to 1000 nM throughout.
`CN1C(=O)[C@@H](NC(=O)c2nc(F)c(Cc3ccccc3)s2)COc2cccnc21` [Example 126, (S)-5-benzyl-4-fluoro-N-(5-methyl-4-oxo-2,3,4,5-tetrahydropyrido[3,2-b][1,4]oxazepin-3-yl)thiazole-2-carboxamide]: the IC50 in assay [1] and in assay [2] (setting [3]) was 0.1 to 1000 nM in each case.
As for `CN1C(=O)[C@@H](NC(=O)c2nn(Cc3ccc(F)cc3)cc2F)COc2cccnc21` [Example 115, (S)-4-fluoro-1-(4-fluorobenzyl)-N-(5-methyl-4-oxo-2,3,4,5-tetrahydropyrido[3,2-b][1,4]oxazepin-3-yl)-1H-pyrazole-3-carboxamide], the IC50 in assay [1] and in assay [2] (setting [3]) was 0.1 to 1000 nM each time.
In the case of `O=C(NC1COc2cccnc2-n2ccnc21)c1nn(Cc2ccccc2)cc1F` (stereo in doubt) [Example 154B, (S)-1-benzyl-N-(6,7-dihydroimidazo[1,2-d]pyrido[3,2-b][1,4]oxazepin-7-yl)-4-fluoro-1H-pyrazole-3-carboxamide], the IC50 in assay [1] and in assay [2] (setting [3]) was 0.1 to 1000 nM in each case.
Regarding `Cc1c(F)c(C(=O)N[C@H]2COc3ccccc3NC2=O)nn1Cc1ccccc1` [Example 45, (S)-1-benzyl-4-fluoro-5-methyl-N-(4-oxo-2,3,4,5-tetrahydrobenzo[b][1,4]oxazepin-3-yl)-1H-pyrazole-3-carboxamide], the IC50 in assay [1] and in assay [2] (setting [3]) was 0.1 to 1000 nM in each case.
Consider `C[C@H]1Oc2cccnc2N(C)C(=O)[C@H]1NC(=O)c1cc(Cc2ccccc2)no1` [Example 122, 3-benzyl-N-((2R,3S)-2,5-dimethyl-4-oxo-2,3,4,5-tetrahydropyrido[3,2-b]oxazepin-3-yl)isoxazole-5-carboxamide], for which the IC50 in assay [1] and in assay [2] (setting [3]) was 0.1 to 1000 nM each time.
With `N#Cc1cccc(Cc2nnc(C(=O)N[C@@H]3C(=O)Nc4c(F)cc(F)cc4[C@@H]4C[C@H]34)[nH]2)c1` [Example 181B, 5-(3-cyanobenzyl)-N-((1aS,2S,8bR)-5,7-difluoro-3-oxo-1,1a,2,3,4,8b-hexahydrobenzo[b]cyclopropa[d]azepin-2-yl)-4H-1,2,4-triazole-3-carboxamide], the half-inhibitory concentration (IC50) in assay [1] and in assay [2] (setting [3]) was 0.1 to 1000 nM in each case.
Take `CN1C(=O)[C@@H](NC(=O)c2cc(F)n(Cc3ccccc3)n2)COc2cccnc21` [Example 165, (S)-1-benzyl-5-fluoro-N-(5-methyl-4-oxo-2,3,4,5-tetrahydropyrido[3,2-b][1,4]oxazepin-3-yl)-1H-pyrazole-3-carboxamide]: the IC50 in assay [1] was 0.1 to 1000 nM; in assay [2] (Homo sapiens, Jurkat) it was 0.1 to 1000 nM.
As to `CN1C(=O)[C@@H](NC(=O)c2nn(Cc3ccccc3F)cc2F)[C@H]2C[C@H]2c2nccnc21` [Example 179A, 4-fluoro-1-(2-fluorobenzyl)-N-((7S,7aS,8aR)-5-methyl-6-oxo-5,6,7,7a,8,8a-hexahydrocyclopropa[d]pyrazino[2,3-b]azepin-7-yl)-1H-pyrazole-3-carboxamide], the IC50 in assay [1] and in assay [2] (setting [3]) was 0.1 to 1000 nM in each case.
Take `C[C@H]1Oc2cccnc2N(C)C(=O)[C@H]1NC(=O)c1nn(Cc2ccc(F)cc2)cc1F` [Example 143, N-((2R,3S)-2,5-dimethyl-4-oxo-2,3,4,5-tetrahydropyrido[3,2-b][1,4]oxazepin-3-yl)-4-fluoro-1-(4-fluorobenzyl)-1H-pyrazole-3-carboxamide]: the concentration for half-maximal inhibition (IC50) in assay [1] and in assay [2] (setting [3]) was 0.1 to 1000 nM in each case.
Regarding `C[C@H]1Oc2cccnc2N(C)C(=O)[C@H]1NC(=O)c1cn(Cc2ccccc2)nn1` [Example 203, 1-benzyl-N-((2R,3S)-2,5-dimethyl-4-oxo-2,3,4,5-tetrahydropyrido[3,2-b][1,4]oxazepin-3-yl)-1H-1,2,3-triazole-4-carboxamide], the IC50 in assay [1] and in assay [2] (setting [3]) was 0.1 to 1000 nM each time.
For the molecule `CN1C(=O)[C@@H](NC(=O)c2nn(Cc3ccc(F)cc3)cc2F)[C@H]2C[C@H]2c2cccnc21` [Example 156B, 4-fluoro-1-(4-fluorobenzyl)-N-((1aS,2S,8bR)-4-methyl-3-oxo-1,1a,2,3,4,8b-hexahydrocyclopropa[d]pyrido[2,3-b]azepin-2-yl)-1H-pyrazole-3-carboxamide], the 50% inhibitory concentration (IC50) in assay [1] and in assay [2] (setting [3]) was 0.1 to 1000 nM each time.
Turning to `CN1C(=O)[C@@H](NC(=O)c2nnc(Cc3ccccc3)[nH]2)CCc2c1cnn2C` [Example 101B, (S)-5-benzyl-N-(1,4-dimethyl-5-oxo-1,4,5,6,7,8-hexahydropyrazolo[4,3-b]azepin-6-yl)-4H-1,2,4-triazole-3-carboxamide], the IC50 in assay [1] and in assay [2] (setting [3]) was 0.1 to 1000 nM throughout.
As to `C[C@H]1Oc2cccnc2N(C)C(=O)[C@H]1NC(=O)c1cn(Cc2ccccc2)cn1` [Example 140, 1-Benzyl-N-((2R,3S)-2,5-dimethyl-4-oxo-2,3,4,5-tetrahydropyrido[3,2-b][1,4]oxazepin-3-yl)-1H-imidazole-4-carboxamide], the IC50 in assay [1] and in assay [2] (setting [3]) was 0.1 to 1000 nM in each case.
Consider `C[C@H]1Oc2cccnc2N(C)C(=O)[C@H]1NC(=O)c1cc(Oc2ccccc2F)ccn1` [Example 117, N-((2R,3S)-2,5-dimethyl-4-oxo-2,3,4,5-tetrahydropyrido[3,2-b][1,4]oxazepin-3-yl)-4-(2-fluorophenoxy)picolinamide], for which the IC50 in assay [1] and in assay [2] (setting [3]) was 0.1 to 1000 nM in each case.
As to “(S)-1-(2-cyanobenzyl)-4-fluoro-N-(5-methyl-4-oxo-2,3,4,5-tetrahydropyrido[3,2-b][1,4]oxazepin-3-yl)-1H-pyrazole-3-carboxamide [Example 153]”, the IC50 in assay [1] and in assay [2] (TNFα 10 ng/mL) was 0.1 to 1000 nM each time.
Turning to `Cc1nc2c(s1)CC[C@H](NC(=O)c1nnc(Cc3ccccc3)[nH]1)C(=O)N2C` [Example 38A, (S)-5-benzyl-N-(2,4-dimethyl-5-oxo-5,6,7,8-tetrahydro-4H-thiazolo[4,5-b]azepin-6-yl)-4H-1,2,4-triazole-3-carboxamide], the IC50 in assay [1] and in assay [2] (setting [3]) was 0.1 to 1000 nM throughout.
On to `CN1C(=O)[C@@H](NC(=O)c2nn(Cc3cc(F)cc(C#N)c3)cc2F)COc2cccnc21` [Example 130, (S)-1-(3-Cyano-5-fluorobenzyl)-4-fluoro-N-(5-methyl-4-oxo-2,3,4,5-tetrahydropyrido[3,2-b][1,4]oxazepin-3-yl)-1H-pyrazole-3-carboxamide], for which the IC50 in assay [1] and in assay [2] (setting [3]) was 0.1 to 1000 nM throughout.
On to `[2H]C([2H])([2H])N1C(=O)[C@@H](NC(=O)c2nn(Cc3ccccc3)cc2F)[C@H]2C[C@H]2c2cc(C#N)ccc21` [Example 206, 1-benzyl-N-((1aS,2S,8bR)-7-cyano-4-trideuteriomethyl-3-oxo-1,1a,2,3,4,8b-hexahydrobenzo[b]cyclopropa[d]azepin-2-yl)-4-fluoro-1H-pyrazole-3-carboxamide], for which the IC50 in assay [1] and in assay [2] (setting [3]) was 0.1 to 1000 nM throughout.
With `CN1C(=O)[C@@H](NC(=O)c2nnc(C3CCc4ccccc43)[nH]2)COc2ccccc21` (stereo partly drawn) [Example 51, 5-(2,3-dihydro-1H-inden-1-yl)-N—((S)-5-methyl-4-oxo-2,3,4,5-tetrahydrobenzo[b][1,4]oxazepin-3-yl)-4H-1,2,4-triazole-3-carboxamide], the IC50 in assay [1] and in assay [2] (setting [3]) was 0.1 to 1000 nM throughout.
Turning to `CN1C(=O)[C@@H](NC(=O)c2nnc(Cc3ccccc3)o2)[C@H]2C[C@H]2c2cccnc21` [Example 157B, 5-benzyl-N-((1aS,2S,8bR)-4-methyl-3-oxo-1,1a,2,3,4,8b-hexahydrocyclopropa[d]pyrido[2,3-b]azepin-2-yl)-1,3,4-oxadiazole-2-carboxamide], the IC50 in assay [1] and in assay [2] (setting [3]) was 0.1 to 1000 nM each time.
For `Cc1nc2c(s1)CC[C@H](NC(=O)c1nnc(Cc3ccccc3)o1)C(=O)N2C` [Example 200, (S)-5-benzyl-N-(2,4-dimethyl-5-oxo-5,6,7,8-tetrahydro-4H-thiazolo[4,5-b]azepin-6-yl)-1,3,4-oxadiazole-2-carboxamide], the IC50 in assay [1] and in assay [2] (setting [3]) was 0.1 to 1000 nM each time.
Turning to `O=C(N[C@H]1CCc2ccccc2-n2ccnc21)c1cc(Cc2ccccc2)on1` [Example 30, (S)-5-benzyl-N-(5,6-dihydro-4H-benzo[f]imidazo[1,2-a]azepin-4-yl)isoxazole-3-carboxamide], the IC50 in assay [1] and in assay [2] (setting [3]) was 0.1 to 1000 nM in each case.
Turning to `CN1C(=O)[C@@H](NC(=O)c2nnc(Cc3ccccc3)[nH]2)COc2c(C#N)cccc21` [Example 56, (S)-5-benzyl-N-(9-cyano-5-methyl-4-oxo-2,3,4,5-tetrahydrobenzo[b][1,4]oxazepin-3-yl)-2H-1,2,4-triazole-3-carboxamide], the IC50 in assay [1] and in assay [2] (setting [3]) was 0.1 to 1000 nM each time.
